Results taken from patent US20080200393A1, “Method and Composition For Treating Angiogenesis and For Preventing Cancer Progression and Metastasis Comprising a Prostate Secretory Protein (Psp94) Family Member” (Ambrillia Biopharma Inc., priority 2004, published 2008).
Where no end group is shown, it is not given here.

Tests used:
ERK = experiment: Induced ERK phosphorylation in HUVEC (Western blot); type: cell-based, Human
Experimental: Cell culture. Human umbilical vein endothelial cells (HUVEC) and pulmonary aortic smooth muscle cells (PASMC) were obtained from Clonetics and maintained in endothelial cell basal medium-2 (EBM-2; Clonetics) and smooth muscle medium-2 (SmGM-2; Clonetics), respectively. Cells were cultured at 37° C. under a humidified atmosphere containing 5% CO2. For experimental purposes, cells were plated in 8 100-mm plastic dishes at 5,000 cells/cm^2 and were grown to confluence before overnight serum starvation. Cells were treated with vehicle or with a PCK3145 derivative diluted in 0.1 N NaOH, and stimulated with 50-100 ng/ml VEGF or PDGF, with 10 ng/ml of bFGF (basic fibroblast growth factor) or with 1 μM S1P (sphingosine-1-phosphate).
Immunoprecipitation and immunoblotting procedures. After treatment, cells were washed once with phosphate-buffered saline (PBS) containing 1 mM sodium orthovanadate and were incubated in the same medium for 1 h at 4° C. The cells were solubilized on ice in lysis buffer (150 mM NaCl, 10 mM Tris-HCl, pH 7.4, 1 mM EDTA, 1 mM EGTA, 0.5% Nonidet P-40, 1% Triton X-100) containing 1 mM sodium orthovanadate. The cells were then scraped from the culture dishes and the resulting lysates were clarified by centrifugation at 10,000 g for 10 min; Protein concentrations were determined using the micro bicinchoninic acid method (Pierce). For immunoprecipitation studies, lysates were clarified by a 1 h incubation at 4° C. with a mixture of Protein A/Protein G Sepharose beads. After removal of the Sepharose beads by low-speed centrifugation, identical amounts of protein (200 μg) from each sample were transferred to fresh tubes and incubated in lysis buffer overnight at 4° C. in the presence of 2 μg/ml of specific antibodies. Immunocomplexes were collected by incubating the mixture with 25 μl (50% suspension) of Protein A- (rabbit primary antibody) or Protein G- (mouse primary antibody) Sepharose beads, for 2 h. Nonspecifically-bound material was removed by washing the beads three times in 1 ml of lysis buffer containing 1 mM sodium orthovanadate, and bound material was solubilized in 25 μl of two-fold concentrated Laemmli sample buffer (125 mM Tris-HCl (pH 6.8), 20% glycerol, 4% SDS, 10% β-mercaptoethanol, and 0.00125% bromphenol blue), boiled 5 min, and resolved by SDS-PAGE. The proteins were transferred onto polyvinylidene difluoride (PVDF) membranes, blocked 1 h at room temperature with Tris-buffered saline/Tween 20 (147 mM NaCl, 20 mM Tris/HCl, pH 7.5, and 0.1% Tween 20) containing 2% bovine serum albumin and incubated overnight at 4° C. with primary antibody. […] The immunoreactive bands were quantified by scanning densitometry (Molecular Dynamics).
VEGF is a strong activator of ERKs (Extracellular-signal-Regulated protein Kinases) 1 and 2 via VEGF receptor 2. In order to test the ability of the PCK3145 derivative in potentially antagonizing VEGF-mediated ERK phosphorylation, serum-starved quiescent endothelial cells (HUVEC) were incubated with vehicle (phosphate-buffered saline (PBS) pH 7.4) or PCK3145 derivative (300 μg/ml) for 24 h and then stimulated with VEGF, bFGF (basic Fibroblast Growth Factor) or S1P (sphingosine-1-phosphate). Cells were washed with PBS containing NaF/Na3VO4 and incubated in the same medium buffer for 1 h at 4° C. The cells were scraped from the culture dishes and the resulting lysates clarified by centrifugation. Western blotting and immunodetection using anti-phosphoERK and anti-ERK antibodies was then performed.

HUVEC = experiment: Matrigel endothelial cell tube formation assay; type: cell-based, Human; details: HUVEC on Matrigel, 0-300 μg/ml, serum-free media, 24 hours
Experimental: Matrigel endothelial cell tube formation assay Matrigel (12.5 mg/ml) was thawed at 4° C., and 50 μl were quickly added to each well of a 96-well plate and allowed to solidify for 10 min at 37° C. […] The formation of capillary-like structures was examined microscopically and pictures (50×) were taken using a Retiga 1300 camera and a Zeiss Axiovert S100 microscope. The extent to which capillary-like structures formed in the gel was quantified by analysis of digitized images to determine the thread length of the capillary-like network, using a commercially available image analysis program (Northern Eclipse).
Matrigel endothelial cell tube formation assay. […] The extent to which capillary-like structures formed in the gel was quantified by analysis of digitized images using a commercially available image analysis software (Northern Eclipse) (25).
This three dimensional ECM model assay provides physiologically relevant environment for studies of cell morphology, biochemical function, and gene expression in endothelial cells (EC) that can be modulated for instance by tumor growth factors or hypoxic culture conditions. […] The extent of capillary-like structures formation (density and size of structures) can be quantified by analysis of digitized images to determine the relative size and area covered by the tube-like network, using an image analysis software (Un-Scan-it, Empix Imaging). […]

U-87 cells = experiment: U-87 cell adhesion to hyaluronic acid; type: cell-based; details: U-87, 300 ug/ml, 48 hrs; adhesion 3 hours; three independent experiments
Experimental: ECM recognition is a crucial event in the cell adhesion processes involved in tumor progression. This process is mediated and regulated through specialized cell surface receptors or integrins. […] U-87 cells were treated with the PCK3145 derivative (300 ug/ml, 48 hrs), trypsinised, counted, and seeded on wells coated with 10 ug/ml BSA (bovine serum albumin) or HA. Cells were allowed to adhere for 3 hours. Three independent experiments were performed. […] One such potential intracellular protein is the GTPase RhoA, which is likely to mediate mechanisms regulating cytoskeletal morphogenesis.

EWQTDNCETCTCYET (cysteine pairing not given here) [PCK3145 derivative, PCK3145 derivative with acetylaminomethyl groups on the three cysteines]
extent of ERK phosphorylation by VEGF, dose-response (ERK): gradually inhibit | ERK phosphorylation induced by S1P (ERK; 300 μg/ml, 24 h): not that induced by bFGF or S1P | ERK phosphorylation induced by VEGF (ERK; 300 μg/ml, 24 h): specific inhibitory effect | total amount of ERK (ERK; 300 μg/ml, 24 h): unaffected | VEGF-induced ERK phosphorylation, time-course (ERK; 3 and 24 hrs): necessity of a long term action | capillary-like structure formation (tubulogenesis) (HUVEC): negatively affects tubulogenesis | diminution of cell adhesion on HA (U-87 cells): 45-76%
